From patent US10633389B2, “CARM1 inhibitors and uses thereof” (Epizyme, Inc., priority 2013, dated 2020) come the findings set out here.

Structures are written as SMILES.

The subject of the experiment is asymmetric di-methyl PABP1 in RKO cells. In words: RKO methylation assay, In Cell Western (ICW) for asymmetric di-methyl PABP1. It counts as cell-based. To be noted: Homo sapiens, RKO, Cellular potencies, ICW PABP1me2a. A digest of the protocol:
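In-cell Western on fixed RKO cells after 48 h compound exposure: anti-asymmetric di-methyl PABP1 signal at 800 nm over DRAQ5 DNA signal at 700 nm. Percent inhibition set between DMSO wells and wells with 20 μM reference compound; IC50 curves fitted in triplicate.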
In the case of `CNC[C@@H](O)COc1ccc(Cl)c(-c2nc(-c3c(C)noc3C)c(C)c(N3CC(F)C3)n2)c1` [Example 206-3], the concentration for half-maximal inhibition (IC50) is less than 5 µM.
The compound `CNCC(O)COc1cccc(-c2nc(-c3c(C)noc3C)c(C)c(N3[C@@H]4CC[C@H]3CN(C)C4)n2)c1` (some centres unmarked) [Example 117-1a] displayed an IC50 of 10 to 20 µM.
Next, `CCOC(=O)N1CCC2(CC1)CN(c1nc(-c3cc(OC[C@H](O)CNC)ccc3Cl)nc(-c3c(C)noc3C)c1C)C2` [Example 285-3]: less than 5 µM; `CNCC(O)COc1cccc(-c2nc(-c3c(C)noc3C)cc(N3CCN(CC(F)(F)F)[C@@H](C)C3)n2)c1` (some centres unmarked) [Example 104-1a]: less than 5 µM.
Next, `CCN1CCC(Nc2nc(-c3cc(OC[C@H](O)CNC)ccc3Cl)nc(-c3c(C)noc3C)c2C)C(F)(F)C1` (some centres unmarked) [Example 291-3]: less than 5 µM; `CNC[C@@H](O)COc1ccc(Cl)c(-c2nc(-c3c(C)noc3C)c(C)c(N3Cc4cnn(C)c4C3)n2)c1` [Example 140-3]: less than 5 µM; `CNC[C@@H](O)COc1ccc(F)c(-c2nc(-c3c(C)noc3C)c(C)c(N3Cc4cncnc4C3)n2)c1` [Example 260-3]: less than 5 µM.
Next, `CNCC(O)COc1cccc(-c2nc(N3CC4CCC(C3)O4)cc(N(C)C3CCOCC3)n2)c1` (centres unmarked) [Example 566-1a]: 10 to 20 µM; `CCO[C@H]1CCC[C@H]1N(CC)c1nc(-c2cc(OC[C@H](O)CNC)ccc2Cl)nc(-c2c(C)noc2C)c1C` [Example 255-3]: 5 to 10 µM.
As to `CNC[C@@H](O)COc1cccc(-c2nc(N[C@@H]3CCN(C4CC4)C[C@@H]3F)c(Cl)c(-c3c(C)noc3C)n2)c1` [Example 68-3], the IC50 was less than 5 µM.
As for `CNCC(O)COc1cc(Cl)cc(-c2nc(NC3CCNCC3)cc(-c3ccncc3)n2)c1` (centres unmarked) [Example 665-1a], the figure is not below 20 µM; as for `CNC[C@@H](O)COc1ccc(Cl)c(-c2nc(N[C@H]3CCO[C@H](C)C3)c(Cl)c(-c3c(C)noc3C)n2)c1` [Example 197-3], less than 5 µM; as for `CNCC(O)COc1cccc(-c2nc(-c3c(C)noc3C)c(C)c(N3CCN(Cc4ccccc4)C(C(F)F)C3)n2)c1` (centres unmarked) [Example 235-1a], less than 5 µM.
As for `CNCC(O)COc1cccc(-c2nc(N[C@H]3C[C@H](C(C)(C)O)C3)c(C)c(-c3c(C)noc3C)n2)c1` (some centres unmarked) [Example 231-1a], the figure is less than 5 µM; as for `CNCC(O)COc1cc(Cl)cc(-c2nc(-c3c(C)noc3C)cc(-c3c(C)noc3C)n2)c1` (centres unmarked) [Example 4-1a], 10 to 20 µM; as for `CNCC(O)COc1cccc(-c2nc(-c3ccnc(OC)c3)cc(N(C)C3CCOCC3)n2)c1` (centres unmarked) [Example 541-1a], 10 to 20 µM.
Next, `CNCC(O)COc1cccc(-c2nc(N[C@@H]3CCOC3)c(C)c(N3CCNCC3)n2)c1` (some centres unmarked) [Example 422-1a]: 10 to 20 µM; `CNC[C@@H](O)COc1ccc(Cl)c(-c2nc(-c3c(C)noc3C)c(C)c(N3CCc4nn(C)cc4C3)n2)c1` [Example 122-3]: less than 5 µM.
The compound `CNCC(O)COc1cccc(-c2nc(-c3c(C)noc3C)cc(N3CCN(CC(F)(F)F)CC3)n2)c1` (centres unmarked) [Example 132-1a] showed an IC50 of less than 5 µM.
As for `CNCC(O)COc1cccc(-c2nc(-c3c(C)noc3C)c(C)c(N(C)C)n2)c1` (centres unmarked) [Example 308-1a], the figure is less than 5 µM; as for `CNCC(O)COc1cccc(-c2nc(-c3c(C)noc3C)cc(N3CCN(C(C)=O)C4(CC4)C3)n2)c1` (centres unmarked) [Example 70-1a], less than 5 µM.
As for `CNC[C@@H](O)COc1ccc(Cl)c(-c2nc(N[C@@H]3CO[C@H](C)C3)c(C)c(-c3c(C)noc3C)n2)c1` [Example 179-3], the figure is less than 5 µM; as for `CNC[C@@H](O)COc1ccc(Cl)c(-c2nc(NC[C@H]3CCCN3C(=O)OC(C)C)c(C)c(-c3c(C)noc3C)n2)c1` [Example 160-3], less than 5 µM; as for `CNC[C@@H](O)COc1ccc(F)c(-c2nc(-c3c(C)noc3C)cc(N3Cc4cnn(C)c4C3)n2)c1` [Example 275-3], less than 5 µM.
As for `CNCC(O)COc1cccc(-c2nc(N[C@@H]3CCOC3)c(C)c(-c3ccncc3)n2)c1` (some centres unmarked) [Example 332-1a], the IC50 was in the range of 10 to 20 µM.
Next, `CNCC(O)COc1cccc(-c2nc(NC3CCOCC3)cc(-c3ccc4c(c3)OCCO4)n2)c1` (centres unmarked) [Example 657-1a]: not below 20 µM.
As for `CNCC(O)COc1cccc(-c2nc(-c3c(C)noc3C)c(C)c(N3CCCC4(CN(C(=O)N(C)C)C4)C3)n2)c1` (centres unmarked) [Example 297-1a], the figure is 5 to 10 µM.
As to `CNCC(O)COc1cccc(-c2nc(-c3ccc(N4CCOCC4)nn3)cc(N(C)C3CCOCC3)n2)c1` (centres unmarked) [Example 512-1a], the half-maximal inhibitory concentration (IC50) lay in the range of 5 to 10 µM.
Compound `CNCC(O)COc1cccc(-c2nc(-c3cnc4cnccn34)cc(N(C)C3CCOCC3)n2)c1` (centres unmarked) [Example 490-1a] gave a 50% inhibitory concentration (IC50) of less than 5 µM.
As for `CNC[C@@H](O)COc1ccc(Cl)c(-c2nc(OC[C@@H]3CCOC3)c(C)c(-c3c(C)noc3C)n2)c1` [Example 126-3], the IC50 is less than 5 µM.
The compound `CNCC(O)COc1cccc(-c2nc(-c3c(C)noc3C)c(C)c(N3CCO[C@@H](CN(C)C(=O)N(C)C)C3)n2)c1` (some centres unmarked) [Example 176-1a] yielded an IC50 of less than 5 µM.
The compound `CCOC(=O)N1CC(Nc2nc(-c3cccc(OCC(O)CNC)c3)nc(-c3c(C)noc3C)c2C)C1` (centres unmarked) [Example 238-1a] displayed an IC50 of 10 to 20 µM.
As for `CNC[C@@H](O)COc1ccc(Cl)c(-c2nc(NC3CC(F)(F)C3)c(C)c(-c3c(C)noc3C)n2)c1` [Example 189-3], the figure is less than 5 µM; as for `CCS(=O)(=O)N1CCC(CNc2nc(-c3cccc(OCC(O)CNC)c3)nc(-c3c(C)noc3C)c2C)CC1` (centres unmarked) [Example 192-1a], less than 5 µM; as for `CNCC(O)COc1cccc(-c2nc(-c3c(C)noc3C)c(C)c(N3CC(NC(=O)OC)C3)n2)c1` (centres unmarked) [Example 12-3], less than 5 µM.
The compound `CNCC(O)COc1cccc(-c2nc(-c3c(C)noc3C)c(C)c(N(C)C3CCOCC3)n2)c1` (centres unmarked) [Example 34-1a] registered an IC50 of less than 5 µM.
Next, `CNC[C@H](O)COc1cccc(-c2nc(NC3CCN(C(=O)OC)C(C)C3)c(C)c(-c3c(C)noc3C)n2)c1` (some centres unmarked) [Example 33-3]: less than 5 µM; `CNCC(O)COc1cccc(-c2nc(NC3CCS(=O)(=O)CC3)c(C)c(-c3c(C)noc3C)n2)c1` (centres unmarked) [Example 59-1a]: 10 to 20 µM.
Next, `CNCC(O)COc1cccc(-c2nc(N(C)C3CCOCC3)cc(-n3nc(C)cc3C)n2)c1` (centres unmarked) [Example 568-1a]: 10 to 20 µM; `CNC[C@@H](O)COc1ccc(F)c(-c2nc(N[C@H]3CCN(C(=O)OC)C[C@H]3F)c(C)c(-c3c(C)noc3C)n2)c1` [Example 64-3]: less than 5 µM; `CNCC(O)COc1cccc(-c2nc(NC3C4COCC43)c(C)c(-c3c(C)noc3C)n2)c1` (centres unmarked) [Example 212-1a]: less than 5 µM.
As for `CNCC(O)COc1cccc(-c2nc(-c3ccc(S(C)(=O)=O)cc3)cc(N(C)C3CCOCC3)n2)c1` (centres unmarked) [Example 499-1a], the figure is less than 5 µM.
As for `CNCC(O)COc1cccc(-c2nc(N[C@H]3CCOC3)c(C)c(N3CCOCC3)n2)c1` (some centres unmarked) [Example 26-1], the IC50 was 10 to 20 µM.
Next, `CNC[C@@H](O)COc1ccc(Cl)c(-c2nc(-c3c(C)noc3C)c(C)c(N3CC4(CCCO4)C3)n2)c1` [Example 121-3]: less than 5 µM; `CNCC(O)COc1cccc(-c2nc(-c3nc(C)cs3)cc(N(C)C3CCOCC3)n2)c1` (centres unmarked) [Example 624-1a]: 10 to 20 µM; `CNCC(O)COc1cccc(-c2nc(NCC3CCN(C4COC4)CC3)c(C)c(-c3c(C)noc3C)n2)c1` (centres unmarked) [Example 262-1a]: less than 5 µM.
Consider `CNCC(O)COc1cccc(-c2nc(N[C@@H]3CCOC3)c(C)c(-c3cn[nH]c3)n2)c1` (some centres unmarked) [Example 338-1a], for which the 50% inhibitory concentration (IC50) lay in the range of 10 to 20 µM.
Next, `CNCC(O)COc1cccc(-c2nc(N(C)C3CCOCC3)c(C)c(N3CCNC[C@@H]3C)n2)c1` (some centres unmarked) [Example 567-1a]: 10 to 20 µM; `CNCC(O)COc1cccc(-c2nc(-c3c(C)noc3C)cc(N3CCN(C(=O)OC)CC3)n2)c1` (centres unmarked) [Example 81-1a]: less than 5 µM.
As for `CNCC(O)COc1cccc(-c2nc(-c3c(C)noc3C)c(C)c(N3C[C@@H]4C[C@H]3CN4C)n2)c1` (some centres unmarked) [Example 84-1a], the figure is less than 5 µM; as for `CNC[C@@H](O)COc1ccc(Cl)c(-c2nc(-c3c(C)noc3C)c(C)c(N3Cc4cnc(C(C)C)nc4C3)n2)c1` [Example 264-3], less than 5 µM.
Next, `CNCC(O)COc1cccc(-c2nc(N[C@@H]3CCOC3)c(C)c(N3CCS(=O)(=O)CC3)n2)c1` (some centres unmarked) [Example 425-1a]: 10 to 20 µM.
The compound `CC[C@@H]1CN(c2nc(-c3cccc(OCC(O)CNC)c3)nc(-c3c(C)noc3C)c2C)CCN1S(=O)(=O)CC` (some centres unmarked) [Example 152-1a] returned a 50% inhibitory concentration (IC50) of less than 5 µM.
Turning to `CNCC(O)COc1cccc(-c2nc(-c3c(C)noc3C)c(C)c(N(C)CC3CCOCC3)n2)c1` (centres unmarked) [Example 86-1a], the IC50 was in the range of 5 to 10 µM.
Next, `CNCC(O)COc1cc(Cl)cc(-c2nc(-c3ccncc3)cc(N3CCOCC3)n2)c1` (centres unmarked) [Example 632-1a]: not below 20 µM; `CNC[C@H](O)COc1ccc(Cl)c(-c2nc(-c3c(C)noc3C)c(C)c(N(C)[C@H]3C[C@@](C)(OC)C3)n2)c1` [Example 95-3]: less than 5 µM; `CNCC(O)COc1ccc(Cl)c(-c2nc(NCC3COCCO3)c(C)c(-c3c(C)noc3C)n2)c1` (centres unmarked) [Example 41-3]: less than 5 µM.
Next, `CNC[C@@H](O)COc1ccc(Cl)c(-c2nc(N[C@H]3CN(C4CC4)C[C@@H]3F)c(C)c(-c3c(C)noc3C)n2)c1` [Example 203-3]: less than 5 µM.
`CNCC(O)COc1ccc(Cl)c(-c2nc(NC3CCN(C(=O)OC)CC3)c(C)c(-c3c(C)noc3C)n2)c1` (centres unmarked) [Example 270-1a] gave an IC50 of less than 5 µM.
As for `CNC[C@@H](O)COc1ccc(F)c(-c2nc(-c3c(C)noc3C)c(C)c(N3Cc4cnn(C)c4C3)n2)c1` [Example 223-3], the figure is less than 5 µM; as for `CNCC(O)COc1cccc(-c2nc(NCC3CCOCC3)c(Cl)c(-c3c(C)noc3C)n2)c1` (centres unmarked) [Example 142-1a], less than 5 µM.
Next, `CNCC(O)COc1cccc(-c2nc(C(=O)NC3CCOCC3)c(C)c(C(=O)NC3CCOCC3)n2)c1` (centres unmarked) [Example 677-1a]: not below 20 µM.

The IC50 is the concentration that gives 50% inhibition.
